Laboratory results reported in ChEMBL document CHEMBL1157969, “Stellettin A induces oxidative stress and apoptosis in HL-60 human leukemia and LNCaP prostate cancer cell lines” (J Nat Prod, 2006).
≈ marks a conversion by molar mass, not a printed value. Calls of active or inactive are those of the source. The calls are words filed in the database; no cut-off is given here.

How the values were obtained:
HL-60 [1] = assay: Induction of apoptosis in human HL60 cells assessed as mean fluorescence intensity of mitochondrial membrane potential dissipation at 1 ug/mL after 24 hrs; format: functional
LNCaP [2] = assay: Induction of apoptosis in human LNCaP cells assessed as increase in transcription of NADPH oxidase component p22phox after 5 hrs by immunoblot; format: functional, cell-based
HL-60 [3] = assay: Induction of apoptosis in human HL60 cells assessed as increase in transcription of NADPH oxidase component p22phox after 5 hrs by immunoblot; format: functional, cell-based
HL-60 [4] = assay: Induction of apoptosis in human HL60 cells at 4 ug/mL after 24 hrs in presence of sense caspase-3 oligonucleotide; format: functional
LNCaP [5] = assay: Induction of apoptosis in human LNCaP cells assessed as apoptotic bodies at 20 ug/mL after 24 hrs by fluorescence microscopy; format: functional
LNCaP [6] = assay: Induction of apoptosis in human LNCaP cells assessed as increase in caspase-3 levels at 20 […] after 24 hrs by immunoblot; format: functional, cell-based
HL-60 [7] = assay: Induction of apoptosis in human HL60 cells assessed as increase in transcription of NADPH oxidase component gp91phox after 5 hrs by immunoblot; format: functional, cell-based
LNCaP [8] = assay: Induction of apoptosis in human LNCaP cells assessed as mean fluorescence intensity of mitochondrial membrane potential dissipation at 20 ug/mL after 24 hrs; format: functional
HL-60 [9] = assay: Induction of apoptosis in human HL60 cells at 4 ug/mL after 24 hrs in presence of antisense caspase-3 oligonucleotide; format: functional, cell-based
HL-60 [10] = assay: Cytotoxicity against human HL60 cells after 48 hrs by MTT assay; format: functional, cell-based; settings: HL-60, 48 h
LNCaP [11] = assay: Induction of apoptosis in human LNCaP cells assessed as increase in transcription of NADPH oxidase component p67phox after 5 hrs by immunoblot; format: functional, cell-based
HL-60 [12] = assay: Induction of apoptosis in human HL60 cells assessed as increase in transcription of NADPH oxidase component p47phox after 5 hrs by immunoblot; format: functional, cell-based
HL-60 [13] = assay: Induction of apoptosis in human HL60 cells assessed as increase in caspase-3 levels at 1 […] after 24 hrs by immunoblot; format: functional, cell-based
HL-60 [14] = assay: Induction of apoptosis in human HL60 cells assessed as increase in transcription of NOX4 after 5 hrs by immunoblot; format: functional, cell-based
LNCaP [15] = assay: Cytotoxicity against human LNCaP cells after 48 hrs by MTT assay; format: functional, cell-based
LNCaP [16] = assay: Induction of apoptosis in human LNCaP cells assessed as decrease in Bcl-2 levels at 20 […] after 24 hrs by immunoblot; format: functional, cell-based
HL-60 [17] = assay: Induction of apoptosis in human HL60 cells assessed as increase in transcription of NOX5 after 5 hrs by immunoblot; format: functional, cell-based
LNCaP [18] = assay: Induction of apoptosis in human LNCaP cells assessed as increase in transcription of NADPH oxidase component p47phox after 5 hrs by immunoblot; format: functional, cell-based
LNCaP [19] = assay: Induction of apoptosis in human LNCaP cells assessed as ROS generation; format: functional, cell-based
HL-60 [20] = assay: Induction of apoptosis in human HL60 cells assessed as increase in transcription of NADPH oxidase component p67phox after 5 hrs by immunoblot; format: functional, cell-based
HL-60 [21] = assay: Induction of apoptosis in human HL60 cells assessed as decrease in Bcl-2 levels at 1 […] after 24 hrs by immunoblot; format: functional, cell-based
HL-60 [22] = assay: Induction of apoptosis in human HL60 cells assessed as increase in FasL levels after 24 hrs by immunoblot; format: functional, cell-based
LNCaP [23] = assay: Induction of apoptosis in human LNCaP cells assessed as increase in transcription of NADPH oxidase component gp91phox after 5 hrs by immunoblot; format: functional, cell-based
HL-60 [24] = assay: Induction of apoptosis in human HL60 cells assessed as mean fluorescence intensity of mitochondrial membrane potential dissipation at 4 ug/mL after 24 hrs; format: functional
HL-60 [25] = assay: Induction of apoptosis in human HL60 cells assessed as increase in transcription of NOX1 after 5 hrs by immunoblot; format: functional, cell-based
LNCaP [26] = assay: Induction of apoptosis in human LNCaP cells assessed as increase in FasL levels after 24 hrs by immunoblot; format: functional, cell-based
HL-60 [27] = assay: Induction of apoptosis in human HL60 cells assessed as apoptotic bodies at 4 ug/mL after 24 hrs by fluorescence microscopy; format: functional

In the case of `C\C(=C/C=C/C(C)=C1/C(=O)C[C@H]2[C@@]3(C)CCC(=O)C(C)(C)[C@@H]3CC[C@]12C)c1ccc(C)c(=O)o1` [STELLETIN A], the Activity (HL-60 [1]) is reported as 23.28, the Activity (LNCaP [2]) is reported as “inactive” and the Activity (HL-60 [3]) is reported as “Dose-dependent effect”. The Activity (HL-60 [4]) was 51%, the Activity (LNCaP [5]) was <10% and the Activity (LNCaP [6]) was “inactive”. For the same compound, the Activity (HL-60 [7]) was “Dose-dependent effect”, the Activity (LNCaP [8]) was 38.82 and the Activity (HL-60 [9]) was “inactive”. For the same compound, the IC50 (HL-60 [10]) was 0.4 µg/mL (≈ 0.865 µM), the Activity (LNCaP [11]) was “inactive” and the Activity (HL-60 [12]) was “Dose-dependent effect”. For the same compound, the Activity (HL-60 [13]) was “Active”, the Activity (HL-60 [14]) was “inactive” and the IC50 (LNCaP [15]) was 120 µg/mL (≈ 259 µM). For the same compound, the Activity (LNCaP [16]) was “inactive”, the Activity (HL-60 [17]) was “inactive” and the Activity (LNCaP [18]) was “inactive”. For the same compound, the Activity (LNCaP [19]) was “Active”, the Activity (HL-60 [20]) was “Dose-dependent effect” and the Activity (HL-60 [21]) was “Active”. The Activity (HL-60 [22]) was “Dose-dependent effect”, the Activity (LNCaP [23]) was “inactive” and the Activity (HL-60 [24]) was 3.09. The Activity (HL-60 [25]) was “inactive”, the Activity (LNCaP [26]) was “Dose-dependent effect” and the Activity (HL-60 [27]) was 56%.
